“And” between values parts separate entries of the source, which are not always exact repeats. Identical values can stand only once. Marks after values point to notes of the source that are not given here.
How the values were obtained:
[1] = molecular target: α1-adrenoceptors; experiment: Radioligand binding assay, displacement of [3H]Prazosin, rat cerebral cortex; conditions: for Ki: rat cerebral cortex, [3H]Prazosin 0.2 nM, ± SEM
Experimental: (§1) The experiment was carried out on rat cerebral cortex. […] The brains were homogenised in 20 vol of an ice-cold 50 mM Tris–HCl buffer (pH 7.6), and were centrifuged at 20.000 × g for 20 min (0–4 °C). The cell pellet was resuspended in the Tris–HCl buffer and centrifuged again. Radioligand binding assays were performed in plates (MultiScreen/Millipore). The final incubation mixture (final volume 300 μL) consisted of 240 μL of the membrane suspension, 30 μL of [^3H]Prazosin (0.2 nM), [^3H]Clonidine (2 nM) or [^3H]CGP12177 (0.2 nM) solution, and 30 μL of the buffer containing seven to eight concentrations (10^–11–10^–4 M) of the tested compounds. […] The incubation was terminated by rapid filtration over glass fibre filters (Whatman GF/C) using a vacuum manifold (Millipore). The filters were then washed twice with the assay buffer and placed in scintillation vials with a liquid scintillation cocktail. Radioactivity was measured in a WALLAC 1409 DSA liquid scintillation counter. All the assays were made in duplicate. The radioligand binding data were analyzed using an iterative curve-fitting routine (GraphPAD/Prism, Version 3.0, San Diego, CA, USA). Ki values were calculated from the Cheng and Prusoff equation [25].

[2] = tested on: anesthetized male Wistar rats; experiment: Effect on normal electrocardiogram (ECG) in vivo in rats; set-up: species or system rat; conditions: 1 mg∙kg^-1 iv, mean ± SEM
Experimental: The effects on ECG intervals and heart rate were determined for all tested compounds at the same dose of 1 mg∙kg^-1.
Electrocardiographic measurement was carried out using the Ascard B5 Eco apparatus, standard lead II, and paper speed of 50 mm∙s^-1. The tested compounds were administered intravenously in a dose of 1 mg∙kg^-1. The ECG recording was carried out immediately before and 1, 5 and 15 min after administration of the tested compounds. The effect of the compounds on rat ECG recording was calculated according to Cambridge et al..

[3] = molecular target: α2-adrenoceptors; experiment: Radioligand binding assay, displacement of [3H]Clonidine, rat cerebral cortex; conditions: [3H]Clonidine 2 nM, ± SEM
Experimental: as §1

[4] = tested on: adrenaline-induced arrhythmia; experiment: Prophylactic antiarrhythmic activity, adrenaline-induced arrhythmia in anesthetized rats; assay type: in vivo, rat; conditions: limits in brackets; for ED50 iv (dose producing 50% inhibition of premature ventricular beats): iv 15 min before adrenaline 20 μg∙kg^-1 iv; for ED50 po (dose producing 50% inhibition of premature ventricular beats): orally (intragastric) 60 min before adrenaline 20 μg∙kg^-1 iv
Experimental: The prophylactic antiarrhythmic activity of compounds 10 and 11 was determined using an adrenaline-induced arrhythmia model of in anesthetized rats.
Arrhythmia was evoked in thiopental (60 mg kg^-1, ip) – anaesthetized rats by iv injection of adrenaline (20 μg kg^-1). The tested compounds were administered intravenously 15 min or orally 60 min before adrenaline. […] The cardiac rhythm disturbances were recorded for 15 min after adrenaline injection. ECGs were analyzed according to the guidelines of the Lambeth Convention on ventricular premature beats (VBs), bigeminy, salvos (less than four successive VBs), ventricular tachycardia (VT, four or more successive VBs), and ventricular fibrillation (VF).

[5] = tested on: normotensive anesthetized rats; experiment: Influence on blood pressure in normotensive anesthetized rats; assay type: in vivo, rat
Experimental: Hypotensive activity of compounds 10 and 11 was determined after iv and po administration to normotensive anesthetized rats.
Male Wistar normotensive rats were anesthetized with thiopental (50–75 mg kg^-1, ip). The right carotid artery was cannulated with a polyethylene tube, filled with heparin in saline to facilitate pressure measurement using the Datamax apparatus (Columbus Instruments). […]

[6] = tested on: isolated rabbit small intestine; experiment: Influence on spontaneous contractions of isolated rabbit ileum; conditions: for Amplitude of contractions / Frequency of contractions: mean ± SEM
Experimental: The influence on isolated rabbit ileum of the investigated compounds on the smooth muscle was investigated on the rabbit small intestine, according to the Magnus’ method modified and described by Orisadipe et al. The white rabbits were sacrificed by cervical dislocation and the small intestine was immediately removed, and cut into strips about 3–4 cm long. The isolated strips were incubated in Krebs solution at 37 °C and aerated with carbogen in special laboratory dishes. The isolated strip of the intestine was placed in a test glass tube with the Krebs solution constantly aerated by carbogen. After 1 hour incubation period, during which the physiological saline solution was changed every 15 min, the influence of the investigated compounds on spontaneous contractions of the rabbit ileum was evaluated. The contraction of the intestine was recorded on a TZ-4100 line recorder via isometric Harvard transducer, at the muscle load of 1 g. The influence of every single dose was recorded for 5 min.

[7] = time 0 min (immediately before administration, baseline)
[8] = po, 2 mg∙kg^-1, from 40 to 90 min
[9] = concentration 0 (control before 10^-5 M)
[10] = concentration 0 (control before 10^-6 M)
[11] = concentration 0 (control before 10^-7 M)
[12] = concentration 0 (control before 10^-8 M)
[13] = concentration 0 (control before 10^-9 M)

COc1ccccc1OCCNCC(O)COc1cccc2[nH]ccc12 (racemic) [(R,S)-9, (2R,S)-1-(1H-indol-4-yloxy)-3-(2-(2-methoxyphenoxy)ethylamino)propan-2-ol, reference compound]
Ki [1]: […] | P–Q ([2]; 1 min after administration): 47.2 ± 1.6 ms | QRS ([2]; 1 min after administration): 28.4 ± 1.2 ms | Q–T ([2]; 1 min after administration): 69.2 ± 1.1 ms | heart rate ([2]; 1 min after administration): 298.7 ± 7.2 Beats/min | QRS ([2]; 5 min after administration): 24.9 ± 1.3 ms | Q–T ([2]; 5 min after administration): 69.0 ± 1.6 ms | heart rate ([2]; 5 min after administration): 294.5 ± 7.7 Beats/min | P–Q ([2]; 15 min after administration): 46.2 ± 1.7 ms | QRS ([2]; 15 min after administration): 26.9 ± 1.1 ms | Q–T ([2]; 15 min after administration): 72.8 ± 1.3 ms | heart rate ([2]; 15 min after administration): 287.3 ± 7.9 Beats/min | P–Q [2, 7]: 45.7 ± 2.0 ms | QRS [2, 7]: 26.4 ± 1.3 ms | Q–T [2, 7]: 72.6 ± 1.7 ms | heart rate [2, 7]: 304.9 ± 8.9 Beats/min | Ki [3]: 1400 ± 400 nM | ED50 iv (dose producing 50% inhibition of premature ventricular beats) [4]: 0.34 (0.23–0.51) mg∙kg^-1 | ED50 po (dose producing 50% inhibition of premature ventricular beats) [4]: 0.44 (0.18 ± 1.10) mg∙kg^-1

COc1ccccc1OCCNCC(O)COc1cccc2[nH]c3ccccc3c12 (stereo not shown) [Carvedilol, reference compound]
heart rate [2, 7]: 356.7 ± 21.0 Beats/min

COCc1cc2[nH]ccc2c(OC)c1OCC(O)CNCCOc1ccccc1OC [Compound 10, (2R,S)-1-(4-Methoxy-6-(methoxymethyl)-1H-indol-5-yloxy)-3-(2-(2-methoxyphenoxy)ethylamino)propan-2-ol]
selectivity towards α1-adrenergic receptors ([1]; from Ki values of Table 1): 52 fold | Ki [1]: 5.9 ± 0.3 nM | time after administration in which diastolic blood pressure was decreased ([5]; iv, 0.25 mg·kg^-1): 10 min | time after administration in which systolic blood pressure was decreased ([5]; iv, 0.25 mg·kg^-1): 20 min | time over which diastolic blood pressure was significantly decreased ([5]; iv, 0.5 mg∙kg^-1): ≤ 10 min | decrease of systolic blood pressure ([5]; iv, 0.5 mg∙kg^-1, throughout the whole observation period): 8–14% | hypotensive activity ([5]; po, 1 mg∙kg^-1): disappeared | decrease of diastolic blood pressure [5, 8]: 11–23% | decrease of systolic blood pressure [5, 8]: 9–18% | P–Q ([2]; 1 min after administration): 45.6 ± 1.6^b ms | QRS ([2]; 1 min after administration): 31.2 ± 0.5^c ms | Q–T ([2]; 1 min after administration): 92.0 ± 4.2 ms | heart rate ([2]; 1 min after administration): 334.0 ± 13.0 Beats/min | P–Q ([2]; 5 min after administration): 46.8 ± 1.6^c ms | QRS ([2]; 5 min after administration): 31.2 ± 1.0^c ms | Q–T ([2]; 5 min after administration): 100.0 ± 2.8 ms | heart rate ([2]; 5 min after administration): 309.6 ± 13.7 Beats/min | P–Q ([2]; 15 min after administration): 46.4 ± 1.6^c ms | QRS ([2]; 15 min after administration): 32.4 ± 0.8^d ms | Q–T ([2]; 15 min after administration): 104.0 ± 1.4^a ms | heart rate ([2]; 15 min after administration): 297.4 ± 12.4 Beats/min | P–Q [2, 7]: 40.4 ± 0.4 ms | QRS [2, 7]: 27.6 ± 0.8 ms | Q–T [2, 7]: 94.4 ± 2.8 ms | heart rate [2, 7]: 329.4 ± 12.2 Beats/min | Ki [3]: 307 ± 11.7 nM | increased frequency of contractions ([6]; 10^-5 M): about 8% | Amplitude of contractions ([6]; 10^-5 M): 1.11 ± 0.09^c g | Frequency of contractions ([6]; 10^-5 M): 10.70 ± 0.25^a min ^-1 | Amplitude of contractions ([6]; 10^-6 M): 1.10 ± 0.07^c g | Frequency of contractions ([6]; 10^-6 M): 11.60 ± 0.22 min ^-1 | Amplitude of contractions ([6]; 10^-7 M): 1.29 ± 0.05^a g | Frequency of contractions ([6]; 10^-7 M): 12.15 ± 0.15 min ^-1 | Amplitude of contractions ([6]; 10^-8 M): 1.31 ± 0.06^b g | Frequency of contractions ([6]; 10^-8 M): 12.15 ± 0.18 min ^-1 | Amplitude of contractions ([6]; 10^-9 M): 1.56 ± 0.06 g | Frequency of contractions ([6]; 10^-9 M): 12.14 ± 0.22 min ^-1 | Amplitude of contractions [6, 9]: 1.72 ± 0.11 g | Frequency of contractions [6, 9]: 11.61 ± 0.27 min ^-1 | Amplitude of contractions [6, 10]: 1.63 ± 0.10 g | Frequency of contractions [6, 10]: 12.24 ± 0.25 min ^-1 | Amplitude of contractions [6, 11]: 1.55 ± 0.10 g | Frequency of contractions [6, 11]: 12.05 ± 0.19 min ^-1 | Amplitude of contractions [6, 12]: 1.53 ± 0.06 g | Frequency of contractions [6, 12]: 11.77 ± 0.14 min ^-1 | Amplitude of contractions [6, 13]: 1.43 ± 0.06 g | Frequency of contractions [6, 13]: 12.74 ± 0.20 min ^-1 | diminished amplitude of contractions ([6]; range of concentrations 10^-8–10^-5 M): 14 to 35% | ED50 iv (dose producing 50% inhibition of premature ventricular beats) [4]: 0.35 (0.18–0.72) mg∙kg^-1 | ED50 po (dose producing 50% inhibition of premature ventricular beats) [4]: 1.71 mg∙kg^-1 and 1.71 (1.52 ± 1.93) mg∙kg^-1

— PMC6264682, “Synthesis and Adrenolytic Activity of New Propanolamines” (Molecules, 2010)
